Data taken from US4011332A, “Hemorrhagic-lesion producing and anticoagulant-containing compositions and their use” (priority 1974, dated 1977).
Read-outs that look alike come from different tables or passages of the source.

What was measured:
Sprague-Dawley rats [1] = test: LD5 determination / hemorrhagic stomach and gut lesions after single oral dose; settings: for LD5: single oral dose, Sprague-Dawley rats, empty stomach; for LD5 (criterion for rat strain to be used): rat strain advisable for the test
Procedure: A selection of compounds from those suitable for component (b) is, however, made in a simpler manner by determining the LD5 (in mg/kg). […] Determination of the cause of death is effected, e.g., by autopsy of the dead animals.
The rats were kept in groups of 5 and four animals in plastic cages of the type M III. The room temperature was maintained at approximately 23° C. For determining the lethal doses, as mentioned in the following description, the rats were fed on empty stomachs. The animals received the noted compounds [for example, component (a) or (b) or the composition containing both] in a volume of liquid amounting to 5 ml per kg of body weight of the rat. The administration of the liquid was carried out once using a feeding tube introduced into the oesophagus. The doses of the active substances [component (a), component (b) or the composition] were varied. Component (b) was administered as a sodium salt in aqueous solution, and the number of animals which died within 10 days after administration was noted.
The lethal doses (LD5, LD50 and LD100 in mg/kg) were determined by simple linear regression, while the limits of trust were determined by the method of Litchfield and Wilcoxon.
Thereafter autopsy the dead animals to determine the cause of death.

Sprague-Dawley rats [2] = test: animal or person; format: in vivo; settings: for LD100 (interpolated): component (b) with 2 mg/kg 4-hydroxy-2-oxo-3-(1-phenylpropyl)-2H-chromene, single oral dose, 10 days
From the text: Note the number of animals which die within 10 days of the respective administrations.

Sprague-Dawley rats [3] = settings: for LD50 oral, in combination with component (b) 2 mg/kg: with 2 mg/kg 1-phenyl-3,5-di-(2-thienyl)-4-pyrazole acetic acid; for LD50 oral, in combination with component (b) 1 mg/kg: with 1 mg/kg 1-phenyl-3,5-di-(2-thienyl)-4-pyrazole acetic acid
Procedure: *Ingestion volume: 5 ml/kg, period of observation: 10 days

[4] = system: wild rats (Rattus norvegicus and Rattus ratus); test: LD100 of combinations in wild rats, single oral dose (Example 3); format: in vivo; settings: full stomachs, 10 days
[5] = system: female Sprague-Dawley rats; test: Rodenticidal bait test, mortality in 10 days (Example 12, Table IV); format: in vivo; settings: one day, 10 days observation
From the text: Following the rules for the examination of rodenticides against rats and mice (edited by Bundesgeshundheitsamt, Institut fuer Wasser-, Boden- und Lufthygiene, Biologische Bundesanstalt fur Land- und Forstwirtschaft, Staatliches Medizinaluntersuchungsamt, Abt. fuer hygienische Schadlingsbekampfung), female Sprague-Dawley rats weighing about 200 grams, kept in single boxes, were provided with the rodenticidal active substances* alone or in combination (expressed in mg/kg) in 4 grams of bait per rat, i.e. 20 g of bait/kg of body weight. These soft consistent, i.e. not crumbly, baits were prepared from Semmelmehl (i.e. powder prepared by grinding dry white bread) and some water. The rats on an empty stomach were provided with these baits as the only food during one day, tap water was ad libitum.
* 4-hydroxy-2-oxo-3-(3-oxo-1-phenyl-butyl)-2H-chromene and 1,5-diphenyl-3-(p-chlorophenyl)-4-pyrazole acetic acid
Thereafter, the animals were provided with usual standard diet Atromine R for the remaining duration of the test.
The mortality rate was determined during a test period of 10 days.

[6] = alone, 5 ml/kg, observation 10 days

SMILES | LD5 (Sprague-Dawley rats [1]) | LD100 (interpolated) (Sprague-Dawley rats [2]) | further results
CN1C(C(=O)Nc2nccs2)=C(O)c2ccccc2S1(=O)=O [L, n-(2-thiazolyl)-4-hydroxy-2-methyl-2H-1,2-benzothiazine-3-carboxamide-1,1-dioxide] | < 50 mg/kg of body weight | ≤ 20.00 mg/kg | 
CCCCC1C(=O)N(c2ccccc2)N(c2ccccc2)C1=O [phenylbutazone, reference compound] |  |  | LD5 (criterion for rat strain to be used) (Sprague-Dawley rats [1]): 600 mg/kg of body weight
CC(=O)CC(c1ccc([N+](=O)[O-])cc1)c1c(O)c2ccccc2oc1=O (stereo not drawn) [Component 1.6, 4-hydroxy-2-oxo-3-[3-oxo-1-(4-nitrophenyl)butyl]-2H-chromene] |  |  | LD50 oral, alone (Sprague-Dawley rats [3]; [6]): above 100 mg/kg of body weight; LD50 oral, in combination with component (b) 2 mg/kg (Sprague-Dawley rats [3]; 5 ml/kg, observation 10 days): 1.3 mg/kg of body weight
O=C1c2ccccc2C(=O)C1c1ccccc1 [2-phenylindandione-(1,3)] |  |  | LD50 oral, alone (Sprague-Dawley rats [3]; [6]): above 100 mg/kg of body weight; LD50 oral, in combination with component (b) 2 mg/kg (Sprague-Dawley rats [3]; 5 ml/kg, observation 10 days): not less than 50 mg/kg of body weight
CCC(c1ccccc1)c1c(O)c2ccccc2oc1=O (stereo not drawn) [Component 1.1, 4-hydroxy-2-oxo-3-(1-phenylpropyl)-2H-chromene, reference compound] |  |  | LD100 ([4]; Rattus norvegicus, 240 h, component (b) 0 mg/kg): 45 mg/kg; LD100, component (a) in combination ([4]; with component (b) 1.5 mg/kg): 4 mg/kg of rat body weight; LD100, component (a) in combination ([4]; with component (b) 2 mg/kg): 3 mg/kg of rat body weight; LD100, component (a) in combination ([4]; with component (b) 3 mg/kg): 2 mg/kg of rat body weight; LD100 (Sprague-Dawley rats [2]; Rattus norvegicus, po, 240 h, anticoagulant alone, Sprague-Dawley rats): 17 mg/kg; LD50 oral, alone (Sprague-Dawley rats [3]; [6]): 3.0 mg/kg of body weight; LD50 oral, in combination with component (b) 1 mg/kg (Sprague-Dawley rats [3]; 5 ml/kg, observation 10 days): 1.7 mg/kg of body weight; LD50 oral, in combination with component (b) 2 mg/kg (Sprague-Dawley rats [3]; 5 ml/kg, observation 10 days): 0.55 mg/kg of body weight
COc1ccc(-n2nc(-c3ccccc3)c(CC(=O)O)c2-c2ccccc2)cc1 [H, 3,5-diphenyl-1-(p-methoxyphenyl)-4-pyrazole acetic acid] | < 15 mg/kg of body weight | ~ 10.00 mg/kg | 
COc1ccc(-c2c(CC(=O)O)c(-c3ccccc3)nn2-c2ccccc2)cc1 [G, 1,3-diphenyl-5-(p-methoxyphenyl)-4-pyrazole acetic acid] | < 15 mg/kg of body weight | ~ 10.0 mg/kg | 
CC(C(=O)O)c1ccc(C2CCCCC2)c(Cl)c1 (single isomer, unassigned) [N, d(+)-3-chloro-4-cyclohexyl-α-methyl-phenylacetic acid] | < 15 mg/kg of body weight | 5 to 10 mg/kg | 
O=C(O)Cc1c(C2CCCCC2)nn(-c2ccccc2)c1-c1ccccc1 [F, 3-cyclohexyl-1,5-diphenyl-4-pyrazole acetic acid] | < 15 mg/kg of body weight | 7.5 mg/kg | 
CN1C(O)=C(C(=O)Nc2ccc(Br)cc2)c2ccccc2S1(=O)=O [Q, n-(4-bromophenyl)-3-hydroxy-2-methyl-2H-1,2-benzothiazine-4-carboxamide-1,1-dioxide] | < 50 mg/kg of body weight |  | 
O=C(O)c1ccccc1O [I, salicylic acid, reference compound] | above 100 mg/kg of body weight |  | 
CN1C(O)=C(C(=O)Nc2ccc([N+](=O)[O-])cc2)c2ccccc2S1(=O)=O [R, n-(4-nitrophenyl)-3-hydroxy-2-methyl-2H-1,2-benzothiazine-4-carboxamide-1,1-dioxide] | < 50 mg/kg of body weight |  | 
O=C(O)Cc1c(-c2ccc(Cl)cc2)nn(-c2ccccc2)c1-c1ccccc1 [B, 1,5-diphenyl-3-(p-chlorophenyl)-4-pyrazole acetic acid] | < 5 mg/kg of body weight | 1.5 mg/kg | 
O=C(O)Cc1c(-c2ccco2)nn(-c2ccccc2)c1-c1ccco1 [O, 1-phenyl-3,5-di-(2-furyl)-4-pyrazole acetic acid] | < 50 mg/kg of body weight | ~ 50 mg/kg | 
O=C(O)Cc1c(-c2cccs2)nn(-c2ccccc2)c1-c1cccs1 [A, 1-phenyl-3,5-di-(2-thienyl)-4-pyrazole acetic acid] | < 5 mg/kg of body weight | ~ 2.0 mg/kg | LD100, component (b) ([4]; component (a) 0 mg/kg): 7 mg/kg of rat body weight; LD100, component (b) in combination ([4]; with component (a) 2 mg/kg): 3 mg/kg of rat body weight; LD100, component (b) in combination ([4]; with component (a) 3 mg/kg): 2 mg/kg of rat body weight; LD100, component (b) in combination ([4]; with component (a) 4 mg/kg): 1.5 mg/kg of rat body weight
COc1ccc2c(c1)c(CC(=O)O)c(C)n2C(=O)c1ccc(Cl)cc1 [E, reference compound] | < 15 mg/kg of body weight | 7.5 mg/kg | LD5 (criterion for rat strain to be used) (Sprague-Dawley rats [1]): approximately 7 mg/kg of body weight
CC(=O)Oc1ccccc1C(=O)O [K, acetylsalicylic acid, reference compound] | above 100 mg/kg of body weight |  | 
CN1C(=O)C(C(=O)Nc2ccc(F)cc2F)c2ccccc21 (stereo not drawn) [P, 1-methyl-2',4'-difluoroxindole-3-carboxanilide] | < 50 mg/kg of body weight |  | 
CC(=O)CC(c1ccccc1)c1c(O)c2ccccc2oc1=O (stereo not drawn) [Component 1.2, 4-hydroxy-2-oxo-3-(3-oxo-1-phenylbutyl)-2H-chromene] |  |  | % of Animals which Died ([5]; Component 1.2 100 mg/kg in bait): 80%; % of Animals which Died ([5]; Component 1.2 200 mg/kg in bait): 80%; LD50 oral, alone (Sprague-Dawley rats [3]; rat, in vivo, po, 240 h): 7.0 mg/kg of body weight; LD50 oral, in combination with component (b) 1 mg/kg (Sprague-Dawley rats [3]; 5 ml/kg, observation 10 days): 4 mg/kg of body weight; LD50 oral, in combination with component (b) 2 mg/kg (Sprague-Dawley rats [3]; 5 ml/kg, observation 10 days): 0.4 mg/kg of body weight
O=C(O)Cc1c(-c2cccs2)nn(-c2ccccc2Cl)c1-c1cccs1 [M, 1(o-chlorophenyl)-3,5-(2-thienyl)-4-pyrazole acetic acid] | < 15 mg/kg of body weight | 10 to 50 mg/kg | 
CC(C)(C)C(=O)C1C(=O)c2ccccc2C1=O [Component 1.4, 2-pivaloyl-1,3-indandione] |  |  | LD50 oral, alone (Sprague-Dawley rats [3]; [6]): above 5 mg/kg of body weight; LD50 oral, in combination with component (b) 2 mg/kg (Sprague-Dawley rats [3]; 5 ml/kg, observation 10 days): above 1 mg/kg of body weight
O=C(O)Cc1c(-c2cccs2)nn(-c2ccc(Cl)cc2)c1-c1cccs1 [D, 1-(p-chlorophenyl)-3,5-di-(2-thienyl)-4-pyrazole acetic acid] | < 5 mg/kg of body weight | 5.0 mg/kg | 
O=C(O)Cc1c(-c2ccccc2)nn(-c2ccccc2)c1-c1ccccc1 [C, 1,3,5-triphenyl-4-pyrazole acetic acid] | < 5 mg/kg of body weight | 3.0 mg/kg | 
